Assay results from ChEMBL document CHEMBL1139292, “Tetrahydroisoquinoline amide substituted phenyl pyrazoles as selective Bcl-2 inhibitors” (Bioorg Med Chem Lett, 2009).
Calls of active or inactive are those of the source. The rule behind the calls is not given here.

Experiments:
[1] = molecular target: Bcl-2-like protein 1 (Bcl-xL) (Homo sapiens) (UniProt Q07817); assay: Inhibition of GST fused Bcl-xL binding to biotinylated 16 mer Bak-BH3 peptide at 33 uM by HTRF-LANCE assay
[2] = molecular target: T1, Apoptosis regulator Bcl-2 (Homo sapiens, UniProt P10415); assay: Inhibition of GST fused Bcl-2 binding to biotinylated 16 mer Bak-BH3 peptide by HTRF-LANCE assay
[3] = molecular target: T1, Apoptosis regulator Bcl-2; assay: Inhibition of GST fused Bcl-2 binding to biotinylated 26 mer Bak-BH3 peptide by HTRF-LANCE assay
[4] = molecular target: T1, Apoptosis regulator Bcl-2; assay: Inhibition of GST fused Bcl-2 binding to biotinylated 26 mer Bak-BH3 peptide at 10 uM by HTRF-LANCE assay
[5] = molecular target: Bcl-2-like protein 1 (Bcl-xL) (Homo sapiens) (UniProt Q07817); assay: Inhibition of GST fused Bcl-xL binding to biotinylated 16 mer Bak-BH3 peptide at 30 uM by HTRF-LANCE assay
[6] = molecular target: Bcl-2-like protein 1 (Bcl-xL) (Homo sapiens) (UniProt Q07817); assay: Inhibition of GST fused Bcl-xL binding to biotinylated 26 mer Bak-BH3 peptide at 30 uM by HTRF-LANCE assay
[7] = molecular target: T1, Apoptosis regulator Bcl-2; settings: 30 uM
Description: Inhibition of GST fused Bcl-2 binding to biotinylated 16 mer Bak-BH3 peptide at 30 uM by HTRF-LANCE assay

[8] = molecular target: Bcl-2-like protein 1 (Bcl-xL) (Homo sapiens) (UniProt Q07817); assay: Inhibition of GST fused Bcl-xL binding to biotinylated 26 mer Bak-BH3 peptide at 10 uM by HTRF-LANCE assay

Bcl-2-like protein 1 (Bcl-xL) (Homo sapiens), sequence (Q07817 whole entry, looked up, the tested form may be a part): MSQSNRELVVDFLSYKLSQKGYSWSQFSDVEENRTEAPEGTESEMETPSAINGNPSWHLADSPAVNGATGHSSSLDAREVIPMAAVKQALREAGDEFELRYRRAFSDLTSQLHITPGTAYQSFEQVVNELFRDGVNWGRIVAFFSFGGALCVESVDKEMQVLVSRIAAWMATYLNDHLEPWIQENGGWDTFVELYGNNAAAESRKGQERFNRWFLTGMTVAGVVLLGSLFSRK
T1 sequence (P10415 whole entry, the tested form may be a part): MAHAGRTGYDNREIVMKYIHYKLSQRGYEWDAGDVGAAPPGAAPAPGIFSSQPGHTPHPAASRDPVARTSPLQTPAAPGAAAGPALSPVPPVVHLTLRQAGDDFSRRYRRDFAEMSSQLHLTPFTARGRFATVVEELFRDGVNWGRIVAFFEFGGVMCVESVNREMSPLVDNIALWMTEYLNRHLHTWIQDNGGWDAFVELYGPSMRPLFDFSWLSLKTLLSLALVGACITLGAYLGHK

SMILES	IC50 [2] [nM]	IC50 [3] [nM]	further results
Cc1cc(C(=O)N(c2ccccc2)c2ccccc2)nn1-c1ccccc1C(=O)N1Cc2ccccc2C[C@H]1CNS(C)(=O)=O	1050	–	inhibition [1]: 40%
CCCCN(CCCC)C(=O)c1cc(C)n(-c2ccc(OCC(=O)O)cc2C(=O)N2CCc3ccccc3C2)n1	10	130	–
Cc1c(Cl)c(C(=O)N(CC(F)(F)F)CC(F)(F)F)nn1-c1ccccc1C(=O)N1Cc2ccccc2C[C@H]1CO	–	–	inhibition [4]: 6%; inhibition [5]: 13%; inhibition [6]: 4%
COC(=O)C[C@@H]1Cc2ccccc2CN1C(=O)c1ccccc1-n1nc(C(=O)N(c2ccccc2)c2ccccc2)cc1C	280	–	–
CNC[C@@H]1Cc2ccccc2CN1C(=O)c1ccccc1-n1nc(C(=O)N(c2ccccc2)c2ccccc2)cc1C	140	–	–
CCCCN(CCCC)C(=O)c1nn(-c2ccc(N)cc2C(=O)N2Cc3ccccc3C[C@H]2CN)c(C)c1Cl	–	380	–
CCOC(=O)[C@@H]1Cc2ccccc2CN1C(=O)c1ccccc1-n1nc(C(=O)N(c2ccccc2)c2ccccc2)cc1C	5610	–	–
Cc1cc(C(=O)N(c2ccccc2)c2ccccc2)nn1-c1ccccc1C(=O)N1Cc2ccccc2C[C@H]1CO	190	–	–
Cc1cc(C(=O)N(c2ccccc2)c2ccccc2)nn1-c1ccccc1C(=O)N1Cc2ccccc2C[C@@H]1C	–	–	inhibition [5]: 4%; inhibition [7]: 27%
CCCCN(CCCC)C(=O)c1cc(C)n(-c2ccc(OCC(=O)c3ccccc3)cc2C(=O)N2CCc3ccccc3C2)n1	20	330	–
CCCCN(CCCC)C(=O)c1nn(-c2ccccc2C(=O)N2Cc3ccccc3C[C@H]2CO)c(C)c1Cl	100	780	–
Cc1cc(C(=O)N(c2ccccc2)C2CCCCC2)nn1-c1ccccc1C(=O)N1CCc2ccccc2C1	1400	–	–
Cc1cc(C(=O)N(c2ccccc2)c2ccccc2)nn1-c1ccccc1C(=O)N1Cc2ccccc2C[C@H]1C	110	–	–
CCCCN(CCCC)C(=O)c1cc(C)n(-c2ccc(NC(=O)COc3ccccc3)cc2C(=O)N2CCc3ccccc3C2)n1	–	510	–
CCCCN(CCCC)C(=O)c1nn(-c2ccc(NS(=O)(=O)Cc3ccccc3)cc2C(=O)N2CCc3ccccc3C2)c(C)c1Cl	–	–	inhibition [8]: 19%
CCCCN(CCCC)C(=O)c1nn(-c2ccc(NC(=O)COc3ccccc3)cc2C(=O)N2CCc3ccccc3C2)c(C)c1Cl	40	130	–
Cc1c(Cl)c(C(=O)N(c2ccccc2)c2ccccc2)nn1-c1ccccc1C(=O)N1Cc2ccccc2C[C@H]1CO	50	480	inhibition [6]: 29%
Cc1c(Br)c(C(=O)N(c2ccccc2)c2ccccc2)nn1-c1ccccc1C(=O)N1Cc2ccccc2C[C@H]1CO	40	210	inhibition [6]: 9%
Cc1cc(C(=O)N(c2ccccc2)c2ccccc2)nn1-c1ccccc1C(=O)N1Cc2ccccc2C[C@H]1CN(C)C	150	–	–
Cc1cc(C(=O)Nc2ccccc2)nn1-c1ccccc1C(=O)N1CCc2ccccc2C1	50000	–	–
Cc1cc(C(=O)N(C)Cc2ccccc2)nn1-c1ccccc1C(=O)N1CCc2ccccc2C1	–	–	Activity [2]: inactive
CCCCN(CCCC)C(=O)c1cc(C)n(-c2ccc(NC(=O)CSc3ccccc3)cc2C(=O)N2CCc3ccccc3C2)n1	–	600	–
CC(=O)NC[C@@H]1Cc2ccccc2CN1C(=O)c1ccccc1-n1nc(C(=O)N(c2ccccc2)c2ccccc2)cc1C	730	–	–
CCCCN(CCCC)C(=O)c1nn(-c2ccccc2C(=O)N2Cc3ccccc3C[C@H]2CN)c(C)c1Cl	20	160	–
CCN(CC)C(=O)c1nn(-c2ccccc2C(=O)N2Cc3ccccc3C[C@H]2CO)c(C)c1Br	3670	17300	inhibition [8]: 14%
COC[C@@H]1Cc2ccccc2CN1C(=O)c1ccccc1-n1nc(C(=O)N(c2ccccc2)c2ccccc2)cc1C	160	–	–
Cc1c(Cl)c(C(=O)N(c2ccccc2)c2ccccc2)nn1-c1ccccc1C(=O)N1Cc2ccccc2C[C@H]1CN	30	100	inhibition [6]: 28%
CCCCN(CCCC)C(=O)c1nn(-c2ccc(NC(=O)Cc3ccccc3)cc2C(=O)N2CCc3ccccc3C2)c(C)c1Cl	40	270	–
Cc1cc(C(=O)N2CCc3ccccc3C2)nn1-c1ccccc1C(=O)N1CCc2ccccc2C1	1500	–	–
Cc1cc(C(=O)N(c2ccccc2)c2ccccc2)nn1-c1ccccc1C(=O)N1Cc2ccccc2C[C@H]1CN	110	–	–
